Measured values reported in ChEMBL document CHEMBL1141249, “Lucentamycins A-D, cytotoxic peptides from the marine-derived actinomycete Nocardiopsis lucentensis” (J Nat Prod, 2007).
Active and inactive are the calls of the source. The calls are words filed in the database; no cut-off is given here.

Assays:
HCT-116 [1] = assay: Cytotoxicity against human HCT116 cells by MTS assay; type: functional, cell-based
HCT-116 [2] = assay: Cytotoxicity against human HCT116 cells upto 150 uM by MTS assay; type: functional, cell-based

SMILES | IC50 (HCT-116 [1]) | Activity (HCT-116 [2])
C/C=C1\CN(C(=O)[C@H](CCCCNC(=N)N)NC(=O)c2ccccc2)[C@H](C(=O)N[C@@H](CC(C)C)C(=O)O)[C@@H]1C [LUCENTAMYCIN A] | 0.2 µM | –
C/C=C1\CN(C(=O)[C@H](CCCCNC(=N)N)NC(=O)CC(C)C)[C@H](C(=O)N[C@@H](CC(C)C)C(=O)O)[C@@H]1C | – | inactive
C/C=C1/CN(C(=O)[C@H](CCCCNC(=N)N)NC(=O)CC(C)C)[C@H](C(=O)N[C@@H](Cc2c[nH]c3ccccc23)C(=O)O)[C@@H]1C [LUCENTAMYCIN B] | 11 µM | –
C/C=C1\CN(C(=O)[C@H](CCCCNC(=N)N)NC(=O)C=C(C)C)[C@H](C(=O)N[C@@H](CC(C)C)C(=O)O)[C@@H]1C | – | inactive
